Data on four compounds can be found in patent US10004225B2, “Wearable insect repelling patch” (S. C. Johnson & Son, Inc., priority 2005, dated 2018).

The subject of one series is mosquitoes. In words: Three-chamber test apparatus, mosquito personal area repellency of hung patches with human test subject as attractant. The class given is in vivo. Particulars: for personal area control (result in words): no adhesive layer. How it is done: Various patch sizes and insect repellents were tested, initially using the test apparatus shown schematically generally at 20 in FIG. 3. The test apparatus 20 has a sample chamber 22, connected to a mosquito chamber 24, which is connected via an opening 34 to a remote chamber 26. Each chamber is generally cubical, with a volume of about 0.43 m^3.
The sample chamber 22 has an open end 28 on the side remote from the mosquito chamber 24. A screen 30 divides the sample chamber 22 from the mosquito chamber 24. The opening 34 between the mosquito chamber 24 and the remote chamber 26 is slightly constricted by side walls 32. However, the opening 34 is still sufficiently large that mosquitoes can freely move between the mosquito and remote chambers 24 and 26.
Four, screened, low-flow exhaust ports 36 are located in the side walls 32, the exhaust ports facing the open end 28. Air is drawn through the exhaust ports 36 and exhausted from the mosquito chamber 24 at a rate sufficient to draw air in through the open end 28 but insufficient to affect the flying of mosquitoes placed in the mosquito chamber 24 or to disturb the air in the remote chamber 26.
For each test, a human test subject 38 is placed at the open end 28 of the sample chamber 22, the test subject's breath providing the warmth, CO2, and moisture known to be human attractants for mosquitoes. The exhaust ports 36 pull air, along with those attractants, though the open end 28 and on through the sample chamber 22, the screen 30, and the mosquito chamber 24. The attractants thus leave the apparatus 20 without entering the remote chamber 26.
Mosquitoes are placed in the mosquito chamber 24 and are quickly attracted to the screen 30 by the human attractants. The open end 28 is large enough to expose primarily the upper torso and head of the test subject. Two patches 10 are hung one foot into the sample chamber 22 and approximately 20 cm down from the chamber's top (except as was done otherwise in particular experiments, as is noted, below).
Percent repellency was calculated as the percent of mosquitoes that had been initially introduced into the mosquito chamber 24 (most of which were attracted to the screen 30 before the patches 10 were put in place), that then were repelled from the screen when the patches were introduced. The “repellency” indicated in the table, below, for time zero reflects the mosquitoes that were not yet attracted to the screen 30 by the time the test patches 10 were introduced. […] The patches 10 used were 103 cm^2 in size, with no adhesive layer 18.
The patch material was a non-woven cloth material comprised of rayon, polyester, and polypropylene (as described in published U.S. Patent Application US20040082248), dosed with 60 mg of the active ingredient. The controls used no patches.
The same test apparatus 20 was used in the same way as described in Example 1, with the following changes. When a test included four patches 10, two were hung as in Example 1, and two were hung about 13 cm from the bottom of the chamber to simulate patches worn on the shoulders and at the waist of a user. In one test, as indicated in the table, below, the patches 10 were attached to the test subject's chest. Each individual patch was treated with the amount of insect repellent indicated. Time is shown in minutes.

For series [1] the following is noted: cited from earlier work.
[2] abbreviates: Example 1, 2 patches 103 cm^2, 60 mg each.
The mark [3] stands for this setting: Example 1, 2 patches 103 cm^2, 60 mg each, no adhesive, 5 min.
[4] abbreviates: Example 1, 2 patches 103 cm^2, 60 mg each, no adhesive, 10 min.
The mark [5] stands for this setting: Example 1, 2 patches 103 cm^2, 60 mg each, no adhesive, 15 min.
[6] abbreviates: Example 1, 2 patches 103 cm^2, 60 mg each, no adhesive, 20 min.
Where [7] appears, read: Example 1, 2 patches 103 cm^2, 60 mg each, no adhesive, time 0 min (mosquitoes not yet attracted to screen).

Structures are written as SMILES. Read-outs that look alike come from different tables or passages of the source.

As to `C#C[C@@H](OC(=O)[C@@H]1[C@@H](C=C(C)C)C1(C)C)C(C)=CCC` (racemic) [emphenthrin, (RS)-1-ethynyl-2-methyl-2-pentenyl-(1RS,3RS)-2,2-dimethyl-3-(2-methylpropenyl)-cyclopropanecarboxylate], the “% Repellency” value worked out at 17 in the series with mosquitoes (Example 2, 2 patches 103 cm^2, 60 mg each, 0 min); 33 in the series on mosquitoes (Example 2, 2 patches 103 cm^2, 60 mg each, 5 min); 29 in the series with mosquitoes (Example 2, 2 patches 103 cm^2, 60 mg each, 10 min); 29 in the series on mosquitoes (Example 2, 2 patches 103 cm^2, 60 mg each, 15 min). In the series with mosquitoes (Example 2, 2 patches 103 cm^2, 60 mg each, within 20 minutes), the “practical mosquito personal area repellency (result in words)” value was “proved not to be an insect repellent capable of providing practical mosquito personal area repellency within 20 minutes”.
Regarding `COP(=O)(OC)OC=C(Cl)Cl` [DDVP, 2,2-dichlorovinyl dimethyl phosphate], the Vapor pressure in series [1] (@ 20° C.) is given as 1.2 × 10^−5 mmHg @. For the same compound, the “% Repellency” value in the series on mosquitoes (Example 2, 4 patches 103 cm^2, 60 mg each, 0 min) is 5; with mosquitoes (Example 2, 4 patches 103 cm^2, 60 mg each, 5 min) it was 11; in the series on mosquitoes (Example 2, 4 patches 103 cm^2, 60 mg each, 10 min), 47; in the series on mosquitoes (Example 2, 4 patches 103 cm^2, 60 mg each, 15 min), 95; in the series with mosquitoes (Example 2, 4 patches 103 cm^2, 60 mg each, 20 min), 95. The “personal area control (result in words)” value in the series on mosquitoes (Example 2, 4 patches, each 103 cm^2 in gross area) is given as “successful personal area control”.
Regarding `CC=C[C@@H]1[C@@H](C(=O)OCc2c(F)c(F)c(C)c(F)c2F)C1(C)C` (racemic) [profluthrin, 2,3,5,6-tetrafluoro-4-methylbenzyl (EZ)-(1RS,3RS)-2,2-dimethyl-3-(prop-1-enyl)-cyclopropanecarboxylate], the Vapor pressure in series [1] (@ 25° C.) is 7.73 × 10^−5 mmHg @. Further, the “personal area repellency (result in words)” value in the series with mosquitoes (setting [2]) is “successful personal area repellency”. For the same compound, the “% Repellency” value with mosquitoes (setting [3]) is 55%; with mosquitoes (setting [4]), 67%; with mosquitoes (setting [5]) it was 91%; in the series with mosquitoes (setting [6]), 93%; in the series on mosquitoes (setting [7]), 6%.
Consider `CC1(C)[C@H](C=C(Cl)Cl)[C@H]1C(=O)OCc1c(F)c(F)cc(F)c1F` [transfluthrin, (1R-trans)-(2,3,5,6-tetrafluorophenyl)-methyl-3-(2,2-dichloroethenyl)-2,2-dimethylcyclopropanecarboxylate], for which the Vapor pressure in series [1] (@ 20° C.) was 3.0 × 10^−6 mmHg @. Besides, in the series on mosquitoes (setting [2]), the “personal area repellency (result in words)” value was “successful personal area repellency”. Also, the “% Repellency” value in the series with mosquitoes (setting [3]) came out at 54%; in the series on mosquitoes (setting [4]), 75%; with mosquitoes (setting [5]), 90%; in the series with mosquitoes (setting [6]), 92%; with mosquitoes (setting [7]) it was 13%; in the series on mosquitoes (Example 2, 2 patches 25.8 cm^2, 30 mg each, 0 min), 13. The “% Repellency” value in the series on mosquitoes (Example 2, 2 patches 25.8 cm^2, 30 mg each, 5 min) was 41; with mosquitoes (Example 2, 2 patches 25.8 cm^2, 30 mg each, 10 min) it was 68; with mosquitoes (Example 2, 2 patches 25.8 cm^2, 30 mg each, 15 min) it was 74; in the series on mosquitoes (Example 2, 2 patches 25.8 cm^2, 30 mg each, 20 min), 79; with mosquitoes (Example 2, 2 patches 103.22 cm^2 taped to test subject's chest, 60 mg each, 0 min) it was 19; in the series with mosquitoes (Example 2, 2 patches 103.22 cm^2 taped to test subject's chest, 60 mg each, 5 min), 33. For the same compound, the “% Repellency” value in the series with mosquitoes (Example 2, 2 patches 103.22 cm^2 taped to test subject's chest, 60 mg each, 10 min) is recorded as 44; with mosquitoes (Example 2, 2 patches 103.22 cm^2 taped to test subject's chest, 60 mg each, 15 min) it was 52; with mosquitoes (Example 2, 2 patches 103.22 cm^2 taped to test subject's chest, 60 mg each, 20 min), 81; in the series with mosquitoes (Example 2, 4 patches 6.45 cm^2, 120 mg each, 0 min), 11; with mosquitoes (Example 2, 4 patches 6.45 cm^2, 120 mg each, 5 min) it was 21; in the series with mosquitoes (Example 2, 4 patches 6.45 cm^2, 120 mg each, 10 min), 32. Also, the “% Repellency” value is reported as 42 in the series on mosquitoes (Example 2, 4 patches 6.45 cm^2, 120 mg each, 15 min); 47 with mosquitoes (Example 2, 4 patches 6.45 cm^2, 120 mg each, 20 min); 5 with mosquitoes (Example 2, 4 patches* 6.45 cm^2, 60 mg each, 4th patch added 10 minutes into test, 0 min); 26 in the series with mosquitoes (Example 2, 4 patches* 6.45 cm^2, 60 mg each, 4th patch added 10 minutes into test, 5 min); 47 with mosquitoes (Example 2, 4 patches* 6.45 cm^2, 60 mg each, 4th patch added 10 minutes into test, 10 min); 47 with mosquitoes (Example 2, 4 patches* 6.45 cm^2, 60 mg each, 4th patch added 10 minutes into test, 15 min). In addition, the “% Repellency” value in the series on mosquitoes (Example 2, 4 patches* 6.45 cm^2, 60 mg each, 4th patch added 10 minutes into test, 20 min) turned out to be 47. Further, the “personal area control (result in words)” value in the series on mosquitoes (Example 2, total area of patches at least 51.6 cm^2 (2 patches, each 25.8 cm^2)) was “successful personal area control”.
